From patent US8791158B2, “Methods of treating meibomian gland dysfunction” (GTX, Inc., priority 2010, dated 2014)

Legend:
[1] = test system: Meibomian gland secretions of rabbits; conditions: cited from earlier work
[2] = test system: acute, orchiectomized (ORX) rabbit model; assay: Tear fatty acid composition (palmitate:stearate ratio) after Compound 2 or TP, Example 3; assay type: in vivo; conditions: ORX rabbits
From the text: The goal of this study was to compare the effect of Compound 2 to testosterone propionate (TP) on tear composition in an acute, orchiectomized (ORX) rabbit model.
Fifteen New Zealand white rabbits weighing approximately 3 lbs were allowed to acclimate for 4 weeks before the start of the study. Animals were weighed on day 0 of the study, randomized according to body weight and allotted to the following dose groups:
Pre-dose tear and blood samples were collected. Animals from groups 2-5 were to premedicated with glycopyrrolate (0.02 mg/kg) and then anesthesia was induced with a combination of ketamine (15 mg/kg): medetomidine (0.25 mg/kg).
Anesthesia was maintained with isoflurane (1 liter/hr). Orchiectomy was performed using a scrotal incision. Animals were revived from anesthesia using atipamezole (1 mg/kg) SQ. Analgesia was provided with buprenorphine (0.05 mg/kg) Immediately after the animals had recovered from anesthesia, they received their first dose with the appropriate test articles as indicated above.
Drug dosing was done once daily for 14 days. Blood was collected at 60 minutes post administration of the last dose of drug and plasma separated for HPLC analysis of parent drug concentrations.
Tears were collected using Schirmer tear strips (Alcon, Tex.) on day 0 before surgery, 24 hours after the last administration of drug (day 15) and also at 42 days (6 weeks after start of study). The tears were stored at −80° C. prior to lipid analysis.
Lipids were hydrolyzed, extracted from the Schirmer strips, derivatized, and subjected to gas chromatography with flame ionization detector (GCFID) to evaluate the lipid composition.
The samples were evaluated for the presence of 28 saturated and unsaturated fatty acids that included methyl caprate (C10:0), methyl laurate (C12:0), methyl 11-dodecenoate (C12:1), methyl myristate (C14:0), methyl myristoleate (C14:1), methyl palmitate (C16:0), methyl palmitoleate (C16:1), methyl stearate (C18:0), methyl oleate (C18:1), methyl vaccenate (C18:1), methyl linoleate (C18:2), methyl gamma linoleate (C18:3), methyl linoleate (C18:3), methyl arachidate (C20:0), methyl 11-eicosenoate (C20:1), methyl 11,14 eicosadinoate (C20:2), methyl 8,11,14 eicosatrienoate (C20:3), methyl eicosapentaenoate (C20:5), methyl behenate (C22:0), methyl erucate (C22:1), methyl 13,16 docosaenoate (C22:2), methyl docosatetraenoate (C22:4), methyl docosapentaenoate (C22:5), methyl docosahexaenoate (C22:6), methyl lignocerate (C24:0), and methyl nervonate (C24:1).
The area under the curve for each individual peak was determined using GC ChemStation software. […] These samples were then washed with a saturated solution of NaCl+0.1% formic acid (FA). […] These samples were all in the predose tear group. Two more samples from the predose group and one sample from Vehicle Intact treated group had small but clear and well to separated peaks that were included in the analysis.
To normalize for the tear content, the lipid composition was expressed as a ratio of the lipid that was most affected by castration (palmitate) to one which remained relatively constant (stearate). Blood was also collected on day 15 (24 hours after last drug administration) of the study, plasma separated and analyzed for Compound 2.
The last dose of drug or vehicle was administered on day 15 of the study Animals were left untreated for 4 weeks (washout period) before tear samples were collected again on Schirmer tear strips and analyzed as indicated above.

## C[C@]12CC[C@H]3[C@@H](CCC4=CC(=O)CC[C@@H]43)[C@@H]1CC[C@@H]2O [19-nortestosterone]
[1]
  Effect on fatty acid profile in total and neutral lipid fractions of Meibomian gland secretions: modulated the fatty acid profile

## CCC(=O)O[C@H]1CC[C@H]2[C@@H]3CCC4=CC(=O)CC[C@]4(C)[C@H]3CC[C@]12C [TP, testosterone propionate, reference compound]
[2]; 2.5 mg/kg, 14 days
  Increase of tear palmitate:stearate ratio relative to intact animals: two times that of intact animals
[2]; SQ 2.5 mg/kg for two weeks, then untreated 4 weeks
  Tear palmitate:stearate ratio after 4 week washout: 1.67±0.17
